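Exposure lasted 48 hours, with cells grown in 96-well plates and compounds tested at five concentrations. The concentration for full growth arrest is given as TGI.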
Columns and labels:
Test in all cases: growth of human tumour cells (NCI), 48 h
[1] = test system: 786-0 renal
[2] = test system: A498 renal
[3] = test system: A549 NSCLC
[4] = test system: ACHN renal
[5] = test system: CAKI-1 renal
[6] = test system: COLO 205 colon
[7] = test system: DLD-1 colon
[8] = test system: DMS 114 small cell lung
[9] = test system: DMS 273 small cell lung
[10] = test system: EKVX NSCLC
[11] = test system: HCT-116 colon
[12] = test system: HCT-15 colon
[13] = test system: HL-60(TB) leukemia
[14] = test system: HOP-18 NSCLC
[15] = test system: HOP-62 NSCLC
[16] = test system: HOP-92 NSCLC
[17] = test system: HT29 colon
[18] = test system: IGROV1 ovarian
[19] = test system: K-562 leukemia
[20] = test system: KM12 colon
[21] = test system: KM20L2 colon
[22] = test system: LXFL 529 NSCLC
[23] = test system: M14 melanoma
[24] = test system: MALME-3M melanoma
[25] = test system: MOLT-4 leukemia
[26] = test system: NCI-H226 lung
[27] = test system: NCI-H23 lung
[28] = test system: NCI-H460 lung
[29] = test system: NCI-H522 lung
[30] = test system: OVCAR-4 ovarian
[31] = test system: OVCAR-5 ovarian
[32] = test system: OVCAR-8 ovarian
[33] = test system: RPMI-8226 leukemia
[34] = test system: RXF 393 renal
[35] = test system: SF-268 CNS
[36] = test system: SF-295 CNS
[37] = test system: SF-539 CNS
[38] = test system: SK-MEL-2 melanoma
[39] = test system: SK-MEL-28 melanoma
[40] = test system: SK-MEL-5 melanoma
[41] = test system: SK-OV-3 ovarian
[42] = test system: SN12C renal
[43] = test system: SNB-19 CNS
[44] = test system: SNB-75 CNS
[45] = test system: SNB-78 CNS
[46] = test system: SR leukemia
[47] = test system: TK-10 renal
[48] = test system: U251 CNS
[49] = test system: UACC-257 melanoma
[50] = test system: UACC-62 melanoma
[51] = test system: UO-31 renal
[52] = test system: XF 498 CNS
[53] = test system: CCRF-CEM leukemia
[54] = test system: HCC-2998 colon
[55] = test system: M19-MEL melanoma
[56] = test system: OVCAR-3 ovarian
[57] = test system: LOX IMVI melanoma
[58] = test system: SW-620 colon

`CC1(C)OCC([C@H]2CC23SCCCS3)O1` (stereo not given in full) was tested, and the TGI [1] was > 100 µM, the TGI [2] was > 100 µM and the TGI [3] was > 100 µM. For the same molecule, the TGI [4] was > 100 µM, the TGI [5] was > 100 µM and the TGI [6] was > 100 µM. The TGI [7] was > 100 µM, the TGI [8] was > 100 µM and the TGI [9] was > 100 µM. The TGI [10] was > 100 µM, the TGI [11] was > 100 µM and the TGI [12] was > 100 µM. For the same molecule, the TGI [13] was > 100 µM, the TGI [14] was > 100 µM and the TGI [15] was > 100 µM. For the same molecule, the TGI [16] was > 100 µM, the TGI [17] was > 100 µM and the TGI [18] was > 100 µM. The TGI [19] was > 100 µM, the TGI [20] was > 100 µM and the TGI [21] was > 100 µM. The TGI [22] was > 100 µM, the TGI [23] was > 100 µM and the TGI [24] was > 100 µM. For the same molecule, the TGI [25] was > 100 µM, the TGI [26] was > 100 µM and the TGI [27] was > 100 µM. The TGI [28] was > 100 µM, the TGI [29] was > 100 µM and the TGI [30] was > 100 µM. The TGI [31] was > 100 µM, the TGI [32] was > 100 µM and the TGI [33] was > 100 µM. The TGI [34] was > 100 µM, the TGI [35] was > 100 µM and the TGI [36] was > 100 µM. The TGI [37] was > 100 µM, the TGI [38] was > 100 µM and the TGI [39] was > 100 µM. For the same molecule, the TGI [40] was > 100 µM, the TGI [41] was > 100 µM and the TGI [42] was > 100 µM. For the same molecule, the TGI [43] was > 100 µM, the TGI [44] was > 100 µM and the TGI [45] was > 100 µM. The TGI [46] was > 100 µM, the TGI [47] was > 100 µM and the TGI [48] was > 100 µM. The TGI [49] was > 100 µM, the TGI [50] was > 100 µM and the TGI [51] was > 100 µM. For the same molecule, the TGI [52] was > 100 µM.
`CC1(S)CC2C(CC1Sc1ccccc1)C2(C)C` (stereo not given) was tested, and the TGI [1] was > 100 µM, the TGI [3] was > 100 µM and the TGI [4] was > 100 µM. For the same molecule, the TGI [53] was > 100 µM, the TGI [6] was > 100 µM and the TGI [7] was > 100 µM. For the same molecule, the TGI [8] was > 100 µM, the TGI [9] was > 100 µM and the TGI [10] was > 100 µM. The TGI [54] was > 100 µM, the TGI [11] was > 100 µM and the TGI [12] was > 100 µM. For the same molecule, the TGI [13] was > 100 µM, the TGI [14] was > 100 µM and the TGI [16] was > 100 µM. The TGI [17] was > 100 µM, the TGI [18] was > 100 µM and the TGI [19] was > 100 µM. For the same molecule, the TGI [20] was > 100 µM, the TGI [22] was > 100 µM and the TGI [23] was > 100 µM. For the same molecule, the TGI [55] was > 100 µM, the TGI [24] was > 100 µM and the TGI [25] was > 100 µM. For the same molecule, the TGI [26] was > 100 µM, the TGI [27] was > 100 µM and the TGI [28] was > 100 µM. For the same molecule, the TGI [56] was > 100 µM, the TGI [30] was > 100 µM and the TGI [31] was > 100 µM. The TGI [32] was > 100 µM, the TGI [33] was > 100 µM and the TGI [35] was > 100 µM. For the same molecule, the TGI [36] was > 100 µM, the TGI [37] was > 100 µM and the TGI [38] was > 100 µM. The TGI [39] was > 100 µM, the TGI [40] was > 100 µM and the TGI [41] was > 100 µM. For the same molecule, the TGI [42] was > 100 µM, the TGI [44] was > 100 µM and the TGI [45] was > 100 µM. For the same molecule, the TGI [47] was > 100 µM, the TGI [48] was > 100 µM and the TGI [49] was > 100 µM. The TGI [51] was > 100 µM and the TGI [52] was > 100 µM.
`CC(=O)C(CN(C)C)C(c1ccccc1)c1c(O)c2ccccc2oc1=O` (stereo not given) was tested, and the TGI [1] was > 100 µM, the TGI [3] was > 100 µM and the TGI [4] was > 100 µM. For the same molecule, the TGI [5] was > 100 µM, the TGI [53] was > 100 µM and the TGI [6] was > 100 µM. The TGI [7] was > 100 µM, the TGI [8] was > 100 µM and the TGI [9] was > 100 µM. The TGI [10] was > 100 µM, the TGI [54] was > 100 µM and the TGI [11] was > 100 µM. For the same molecule, the TGI [12] was > 100 µM, the TGI [13] was > 100 µM and the TGI [14] was > 100 µM. The TGI [15] was > 100 µM, the TGI [16] was > 100 µM and the TGI [17] was > 100 µM. For the same molecule, the TGI [18] was > 100 µM, the TGI [19] was > 100 µM and the TGI [20] was > 100 µM. For the same molecule, the TGI [21] was > 100 µM, the TGI [57] was > 100 µM and the TGI [22] was > 100 µM. The TGI [23] was > 100 µM, the TGI [55] was > 100 µM and the TGI [24] was > 100 µM. The TGI [25] was > 100 µM, the TGI [26] was > 100 µM and the TGI [27] was > 100 µM. For the same molecule, the TGI [28] was > 100 µM, the TGI [29] was > 100 µM and the TGI [56] was > 100 µM. For the same molecule, the TGI [30] was > 100 µM, the TGI [31] was > 100 µM and the TGI [32] was > 100 µM. The TGI [33] was > 100 µM, the TGI [34] was > 100 µM and the TGI [35] was > 100 µM. The TGI [36] was > 100 µM, the TGI [37] was > 100 µM and the TGI [38] was > 100 µM. The TGI [39] was > 100 µM, the TGI [40] was > 100 µM and the TGI [41] was > 100 µM. The TGI [42] was > 100 µM, the TGI [43] was > 100 µM and the TGI [44] was 88.5 µM. The TGI [45] was > 100 µM, the TGI [46] was > 100 µM and the TGI [58] was > 100 µM. For the same molecule, the TGI [47] was > 100 µM, the TGI [48] was > 100 µM and the TGI [49] was > 100 µM. The TGI [50] was > 100 µM and the TGI [52] was > 100 µM.
